Experimental data as given in patent US9833455B2, “Preparation and methods of use for ortho-aryl 5-membered heteroaryl-carboxamide containing multi-targeted kinase inhibitors” (Spacefill Enterprises LLC, priority 2011, dated 2017).

Legend:
[1] = biological target: T1, EGFR(L858R) (Homo sapiens, UniProt P00533, L858R); details: 1 μM, duplicate, without preincubation; cited from earlier work
T1 construct: literature Ambit Biosciences

[2] = biological target: T2, CSF1R (Homo sapiens, UniProt P07333); details: 1 μM, duplicate, without preincubation; cited from earlier work
T2 construct: literature Ambit Biosciences

[3] = biological target: T3, IKK-alpha (Homo sapiens, UniProt O15111); details: 1 μM, duplicate, without preincubation; cited from earlier work
T3 construct: literature Ambit Biosciences

[4] = biological target: T4, FGFR3 (Homo sapiens, UniProt P22607); details: 1 μM, duplicate, without preincubation; cited from earlier work
T4 construct: literature Ambit Biosciences

[5] = biological target: T5, ULK2 (Homo sapiens, UniProt Q8IYT8); details: 1 μM, duplicate, without preincubation; cited from earlier work
T5 construct: literature Ambit Biosciences

[6] = biological target: T6, PCTK1 (Homo sapiens, UniProt Q00536); details: 1 μM, duplicate, without preincubation; cited from earlier work
T6 construct: literature Ambit Biosciences

[7] = biological target: T7, KIT(D816V) (Homo sapiens, UniProt P10721, D816V); details: 1 μM, duplicate, without preincubation; cited from earlier work
T7 construct: literature Ambit Biosciences

[8] = biological target: T8, DDR2 (Homo sapiens, UniProt Q16832); test: Nanosyn kinase profiling, % inhibition; assay type: biochemical; details: panel of 230 kinases
T8 sequence (Q16832 22-855): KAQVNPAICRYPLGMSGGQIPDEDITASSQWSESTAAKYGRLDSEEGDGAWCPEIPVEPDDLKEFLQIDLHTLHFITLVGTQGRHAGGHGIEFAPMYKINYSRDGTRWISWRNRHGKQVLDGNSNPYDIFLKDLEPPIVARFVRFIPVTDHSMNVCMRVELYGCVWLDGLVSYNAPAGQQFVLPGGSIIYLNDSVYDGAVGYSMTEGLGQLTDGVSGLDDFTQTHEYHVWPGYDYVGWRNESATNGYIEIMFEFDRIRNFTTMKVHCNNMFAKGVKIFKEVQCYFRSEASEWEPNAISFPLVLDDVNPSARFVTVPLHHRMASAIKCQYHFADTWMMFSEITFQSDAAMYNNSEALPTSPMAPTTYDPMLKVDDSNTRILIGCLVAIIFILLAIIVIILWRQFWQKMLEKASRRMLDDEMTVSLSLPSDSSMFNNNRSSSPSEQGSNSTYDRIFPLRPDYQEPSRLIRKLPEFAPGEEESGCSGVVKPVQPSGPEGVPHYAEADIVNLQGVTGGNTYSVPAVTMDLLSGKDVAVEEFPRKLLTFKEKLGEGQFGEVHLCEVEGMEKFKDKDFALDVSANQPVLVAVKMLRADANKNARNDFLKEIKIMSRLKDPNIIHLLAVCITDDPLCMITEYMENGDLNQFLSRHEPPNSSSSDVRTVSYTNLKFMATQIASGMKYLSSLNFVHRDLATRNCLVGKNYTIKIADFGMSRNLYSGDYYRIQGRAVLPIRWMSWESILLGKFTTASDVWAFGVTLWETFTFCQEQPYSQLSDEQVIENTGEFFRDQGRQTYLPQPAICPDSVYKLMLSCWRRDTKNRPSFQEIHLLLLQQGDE
Method: (§1) “Inhibiting kinase activity” means to decrease the production of an phosphor-peptide by a particular kinase that can be separated by analytical techniques. For example, a comprehensive platform of kinase, protease, phosphatase and epigenetic assays that utilizes cutting-edge microfluidics and informatics tools to provide accurate and rapid results. Profiling data in this application were determined using these techniques at Nanosyn Inc. IC50 data were provided by Reaction Biology Inc using a P33 radiolabeled kinase assay.
(§2) A total of 15 new inhibitors were designed, prepared, and evaluated against a panel of 29 selected kinases in order to explore the applicability, SAR trends, and the tunability of this scaffold that could be imposed but this unique geometry, Table 21. Inhibitors I-1 to 1-12 all retained the 2-CF3-5-(4-F-phenyl) imidazole-4-carboxamide scaffold previously described (Deitrich, 2010), but explored different Hinge-Gatekeeper Motifs (HGM).
(§3) More modest activity for Aurora-A, FLT-1/4, KDR, KIT, PDGFRs was accompanied by better activity for B-Raf mutant and wild-type forms, Modest inhibition of MEK-1, BTK, c-Met, RET, and RON was also observed. […] Moreover, the observed inhibition of MEK-1 with 1-12 and TYK2 with I-6 represents additional activities against kinases for which no type-II inhibitors have been reported to date. […] To further evaluate the scope of inhibition, I-6 was evaluated against a larger panel of 230 kinases, Table-22.

[9] = biological target: FLT1 (Homo sapiens, UniProt P17948); test: Nanosyn kinase profiling, % inhibition; assay type: biochemical; details: panel of 230 kinases
Method: as §1, §2, §3

[10] = biological target: FLT4 (Homo sapiens, UniProt P35916); test: Nanosyn kinase profiling, % inhibition; assay type: biochemical; details: panel of 230 kinases
Method: as §1, §2, §3

[11] = biological target: EPHA2 (Homo sapiens, UniProt P29317); test: Nanosyn kinase profiling, % inhibition; assay type: biochemical; details: panel of 230 kinases
Method: as §1, §2, §3

[12] = biological target: FLT3 (Homo sapiens, UniProt P36888); test: Nanosyn kinase profiling, % inhibition; assay type: biochemical; details: panel of 230 kinases
Method: as §1, §2, §3

[13] = biological target: CRAF (Homo sapiens, UniProt P04049); test: Nanosyn kinase profiling, % inhibition; assay type: biochemical; details: panel of 230 kinases
Method: as §1, §2, §3

[14] = biological target: KIT (Homo sapiens, UniProt P10721); test: Nanosyn kinase profiling, % inhibition; assay type: biochemical; details: panel of 230 kinases
Method: as §1, §2, §3

[15] = biological target: TIE2 (Homo sapiens, UniProt Q02763); test: Nanosyn kinase profiling, % inhibition; assay type: biochemical; details: panel of 230 kinases
Method: as §1, §2, §3

Sequence of TIE2 (Q02763 23-1124): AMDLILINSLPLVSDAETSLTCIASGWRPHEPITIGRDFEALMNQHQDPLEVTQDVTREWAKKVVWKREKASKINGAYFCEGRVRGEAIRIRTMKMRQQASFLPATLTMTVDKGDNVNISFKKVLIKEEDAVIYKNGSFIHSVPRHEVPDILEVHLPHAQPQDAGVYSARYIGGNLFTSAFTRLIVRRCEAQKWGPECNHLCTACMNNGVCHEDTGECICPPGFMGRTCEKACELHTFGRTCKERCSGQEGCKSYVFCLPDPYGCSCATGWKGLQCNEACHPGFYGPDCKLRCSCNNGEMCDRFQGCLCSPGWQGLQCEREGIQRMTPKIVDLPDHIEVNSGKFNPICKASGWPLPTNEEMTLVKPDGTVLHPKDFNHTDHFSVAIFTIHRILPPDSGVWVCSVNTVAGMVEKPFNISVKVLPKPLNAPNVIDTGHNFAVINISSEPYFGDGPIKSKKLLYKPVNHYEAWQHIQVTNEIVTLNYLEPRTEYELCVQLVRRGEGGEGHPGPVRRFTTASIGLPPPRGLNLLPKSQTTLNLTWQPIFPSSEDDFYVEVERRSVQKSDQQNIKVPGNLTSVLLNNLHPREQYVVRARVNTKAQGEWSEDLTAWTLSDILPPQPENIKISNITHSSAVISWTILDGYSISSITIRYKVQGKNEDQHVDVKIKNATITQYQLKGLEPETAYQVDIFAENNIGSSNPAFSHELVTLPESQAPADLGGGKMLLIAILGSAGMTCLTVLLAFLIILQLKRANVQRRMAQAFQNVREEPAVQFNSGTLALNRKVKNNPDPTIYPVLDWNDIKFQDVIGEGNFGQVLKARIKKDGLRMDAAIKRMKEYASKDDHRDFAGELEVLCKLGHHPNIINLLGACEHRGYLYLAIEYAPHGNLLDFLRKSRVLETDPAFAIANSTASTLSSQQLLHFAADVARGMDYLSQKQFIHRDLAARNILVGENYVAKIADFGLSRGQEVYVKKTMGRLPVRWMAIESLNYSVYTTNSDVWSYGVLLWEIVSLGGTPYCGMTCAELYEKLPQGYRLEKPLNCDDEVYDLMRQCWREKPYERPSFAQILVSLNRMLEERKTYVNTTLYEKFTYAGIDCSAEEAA
Sequence of EPHA2 (P29317 24-976): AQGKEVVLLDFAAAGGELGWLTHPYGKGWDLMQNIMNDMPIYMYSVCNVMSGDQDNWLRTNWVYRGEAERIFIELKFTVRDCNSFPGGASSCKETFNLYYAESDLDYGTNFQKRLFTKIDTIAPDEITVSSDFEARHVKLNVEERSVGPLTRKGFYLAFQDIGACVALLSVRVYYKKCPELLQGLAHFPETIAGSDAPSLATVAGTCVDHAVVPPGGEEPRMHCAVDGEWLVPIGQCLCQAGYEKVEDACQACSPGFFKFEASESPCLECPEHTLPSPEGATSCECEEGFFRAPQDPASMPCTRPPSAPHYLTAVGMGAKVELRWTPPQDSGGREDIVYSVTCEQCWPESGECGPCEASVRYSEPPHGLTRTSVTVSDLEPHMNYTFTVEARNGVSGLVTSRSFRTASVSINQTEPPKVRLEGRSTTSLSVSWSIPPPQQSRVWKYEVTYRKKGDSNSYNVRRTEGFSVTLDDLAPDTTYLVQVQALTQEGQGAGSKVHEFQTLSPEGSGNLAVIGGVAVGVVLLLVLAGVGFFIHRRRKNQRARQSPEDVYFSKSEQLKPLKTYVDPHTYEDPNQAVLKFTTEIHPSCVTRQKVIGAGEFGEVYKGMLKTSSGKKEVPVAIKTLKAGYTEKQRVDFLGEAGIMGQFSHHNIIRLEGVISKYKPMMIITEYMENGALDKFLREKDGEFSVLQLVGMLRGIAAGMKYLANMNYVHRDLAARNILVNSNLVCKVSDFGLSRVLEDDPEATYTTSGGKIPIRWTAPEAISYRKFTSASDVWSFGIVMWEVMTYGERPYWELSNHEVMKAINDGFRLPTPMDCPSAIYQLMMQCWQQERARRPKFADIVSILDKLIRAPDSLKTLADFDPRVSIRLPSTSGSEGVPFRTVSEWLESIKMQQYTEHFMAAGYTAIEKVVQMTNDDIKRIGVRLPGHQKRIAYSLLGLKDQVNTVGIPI
Sequence of KIT (P10721 26-976): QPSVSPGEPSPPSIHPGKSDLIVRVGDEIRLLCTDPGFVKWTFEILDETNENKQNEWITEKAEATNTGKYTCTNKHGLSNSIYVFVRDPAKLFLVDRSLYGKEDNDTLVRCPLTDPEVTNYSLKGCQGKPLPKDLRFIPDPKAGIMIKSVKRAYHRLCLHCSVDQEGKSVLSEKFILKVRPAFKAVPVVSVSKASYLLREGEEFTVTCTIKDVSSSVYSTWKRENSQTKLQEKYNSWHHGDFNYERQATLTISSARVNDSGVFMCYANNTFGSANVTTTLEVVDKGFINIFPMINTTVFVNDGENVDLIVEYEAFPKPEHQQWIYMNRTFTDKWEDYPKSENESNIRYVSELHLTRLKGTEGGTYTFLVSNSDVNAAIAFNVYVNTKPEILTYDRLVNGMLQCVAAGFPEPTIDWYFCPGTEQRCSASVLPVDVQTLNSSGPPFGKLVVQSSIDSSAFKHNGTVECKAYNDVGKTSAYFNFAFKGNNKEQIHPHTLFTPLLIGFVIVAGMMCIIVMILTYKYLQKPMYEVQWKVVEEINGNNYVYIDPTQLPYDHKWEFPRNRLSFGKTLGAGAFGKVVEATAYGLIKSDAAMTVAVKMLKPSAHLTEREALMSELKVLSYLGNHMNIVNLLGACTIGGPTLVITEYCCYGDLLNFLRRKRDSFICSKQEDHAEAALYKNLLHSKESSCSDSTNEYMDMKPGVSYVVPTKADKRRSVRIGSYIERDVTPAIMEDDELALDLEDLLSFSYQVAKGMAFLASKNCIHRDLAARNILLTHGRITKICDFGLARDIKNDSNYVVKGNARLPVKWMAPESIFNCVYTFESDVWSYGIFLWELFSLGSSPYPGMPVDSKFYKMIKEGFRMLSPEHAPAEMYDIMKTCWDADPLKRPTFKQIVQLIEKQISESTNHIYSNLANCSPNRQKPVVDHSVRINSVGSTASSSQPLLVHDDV
T1 sequence (P00533 25-1210 L858R): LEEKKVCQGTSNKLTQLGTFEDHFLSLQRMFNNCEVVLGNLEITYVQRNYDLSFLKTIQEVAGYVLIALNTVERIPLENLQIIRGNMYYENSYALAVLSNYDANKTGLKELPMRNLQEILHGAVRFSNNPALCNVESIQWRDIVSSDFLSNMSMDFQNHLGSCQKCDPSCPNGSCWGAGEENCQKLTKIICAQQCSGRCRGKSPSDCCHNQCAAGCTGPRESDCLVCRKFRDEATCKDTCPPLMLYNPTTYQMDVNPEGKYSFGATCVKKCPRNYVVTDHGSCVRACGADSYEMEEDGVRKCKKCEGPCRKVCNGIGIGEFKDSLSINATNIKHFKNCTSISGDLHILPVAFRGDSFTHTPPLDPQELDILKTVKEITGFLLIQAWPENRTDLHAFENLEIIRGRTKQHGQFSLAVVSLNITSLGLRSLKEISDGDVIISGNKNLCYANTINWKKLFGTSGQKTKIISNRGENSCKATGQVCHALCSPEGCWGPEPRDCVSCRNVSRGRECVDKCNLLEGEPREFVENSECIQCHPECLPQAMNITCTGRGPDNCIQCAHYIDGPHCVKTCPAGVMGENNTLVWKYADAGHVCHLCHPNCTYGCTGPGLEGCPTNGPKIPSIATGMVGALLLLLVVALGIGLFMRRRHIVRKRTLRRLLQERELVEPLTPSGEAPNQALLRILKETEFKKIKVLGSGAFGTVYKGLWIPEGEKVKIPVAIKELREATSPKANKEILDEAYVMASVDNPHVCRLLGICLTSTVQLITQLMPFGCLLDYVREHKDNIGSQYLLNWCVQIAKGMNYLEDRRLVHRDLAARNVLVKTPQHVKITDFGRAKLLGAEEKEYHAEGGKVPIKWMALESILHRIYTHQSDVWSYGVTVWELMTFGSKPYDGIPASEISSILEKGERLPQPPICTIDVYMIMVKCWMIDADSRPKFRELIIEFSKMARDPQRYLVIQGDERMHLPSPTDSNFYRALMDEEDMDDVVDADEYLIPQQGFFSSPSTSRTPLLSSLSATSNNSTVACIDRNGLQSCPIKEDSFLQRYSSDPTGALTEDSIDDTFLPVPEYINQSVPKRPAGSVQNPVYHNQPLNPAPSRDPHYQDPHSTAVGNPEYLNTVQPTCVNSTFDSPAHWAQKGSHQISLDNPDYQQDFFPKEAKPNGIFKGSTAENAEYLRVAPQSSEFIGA
T3 sequence (O15111 whole entry): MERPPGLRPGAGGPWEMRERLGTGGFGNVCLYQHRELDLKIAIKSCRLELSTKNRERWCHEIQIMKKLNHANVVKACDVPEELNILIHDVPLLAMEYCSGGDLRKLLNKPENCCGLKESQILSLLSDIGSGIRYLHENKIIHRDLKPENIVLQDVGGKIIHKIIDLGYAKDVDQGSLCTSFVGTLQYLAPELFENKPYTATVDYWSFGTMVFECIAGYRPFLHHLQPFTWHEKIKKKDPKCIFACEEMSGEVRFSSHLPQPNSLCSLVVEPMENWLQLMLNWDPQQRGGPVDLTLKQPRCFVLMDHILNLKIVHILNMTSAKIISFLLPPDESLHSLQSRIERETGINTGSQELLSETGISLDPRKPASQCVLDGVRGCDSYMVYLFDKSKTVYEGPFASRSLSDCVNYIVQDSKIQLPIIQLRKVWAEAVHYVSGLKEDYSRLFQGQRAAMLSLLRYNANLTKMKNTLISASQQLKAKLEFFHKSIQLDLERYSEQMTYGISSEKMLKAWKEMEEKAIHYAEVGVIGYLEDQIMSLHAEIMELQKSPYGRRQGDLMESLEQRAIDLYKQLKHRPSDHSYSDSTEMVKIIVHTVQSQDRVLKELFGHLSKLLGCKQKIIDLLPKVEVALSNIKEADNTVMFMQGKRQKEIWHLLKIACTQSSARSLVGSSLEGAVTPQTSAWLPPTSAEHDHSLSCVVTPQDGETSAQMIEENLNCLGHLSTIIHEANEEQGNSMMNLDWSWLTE
T7 sequence (P10721 26-976 D816V): as the sequence (P10721 26-976) above, with D791V counted along it

## Cc1ccc(NC(=O)c2[nH]c(C(F)(F)F)nc2-c2ccc(F)cc2)cc1Nc1ccc2ncn(C)c(=O)c2c1 [KIN-035]
[1]
  inhibition of EGFR(L858R): X (X > 25% @ 1 μM)
[2]
  inhibition of CSF1R: XXX (XXX > 75% @ 1 μM)

## Cc1ccc(-c2nc(C(F)(F)F)[nH]c2C(=O)Nc2ccc(C)c(Nc3ccc4ncn(C)c(=O)c4c3)c2)cc1F [KIN-038]
[3]
  inhibition of IKK-alpha: X (X > 25% @ 1 μM)
[4]
  inhibition of FGFR3: X (X > 25% @ 1 μM)
[5]
  inhibition of ULK2: X (X > 25% @ 1 μM)
[6]
  inhibition of PCTK1: X (X > 25% @ 1 μM)
[7]
  inhibition of KIT(D816V): X (X > 25% @ 1 μM)

## CNC(=O)c1cc(Oc2ccc(NC(=O)c3nc(C(F)(F)F)[nH]c3-c3ccc(F)cc3)cc2)ccn1 [Inhibitor I-6, 4-(4-{[5-(4-Fluoro-phenyl)-2-trifluoromethyl-3H-imidazole-4-carbonyl]-amino}-phenoxy)-pyridine-2-carboxylic acid methylamide]
[8]
  inhibition at 5 µM: ≥ 50%
[9]
  inhibition at 5 µM: ≥ 50%
[10]
  inhibition at 5 µM: ≥ 50%
[11]
  inhibition at 5 µM: ≥ 50%
[12]
  inhibition at 5 µM: ≥ 50%
[13]
  inhibition at 5 µM: ≥ 50%
[14]
  inhibition at 5 µM: ≥ 50%
[15]
  inhibition at 5 µM: ≥ 50%
